A short description of one data set: PK study in SD rats. Format: in vivo. The following applies: rat, plasma, SD male rats; for AUC(0-t) / Tmax / half-life: mean ± SD (n = 3); for bioavailability: p.o. 10 mg/kg vs i.v. 2 mg/kg, F = (AUC p.o. × Dose i.v.)/(AUC i.v. × Dose p.o.) × 100%. Here is the method:
In vivo pharmacokinetic properties of WK-22, WK-23, WK-27, and DC_517 were performed by Medicilon Company, Shanghai, China. SPF-grade SD male rats (8 groups, n = 3 rats per group) with a body weight of 230–260 g were purchased from Shanghai SIPPR-BK LAB Animal Ltd., Shanghai, China, and used for the pharmacokinetic analysis of the tested compounds. All animals were deprived of food overnight after the cannulation surgery. Subsequently, the tested compounds WK-23 and DC_517 were dissolved/suspended in 5% DMSO, 10% Solutol, and 85% water, and the tested compounds WK-22 and WK-27 were dissolved/suspended in 5% DMSO, 40% PEG400, and 55% saline for intravenous administration (i.v.) and oral administration (p.o.), respectively. A final dosage of 2.0 and 10.0 mg/kg rat of the formulated compounds was administered for i.v. and p.o. purposes, respectively, and the blood samples were taken at various time points during a 24 h period. At different time points, blood samples were collected from the femoral vein. The plasma samples were obtained after centrifugation (6800 g, 6 min, 2–8 °C) and stored at −80 °C until the assay. The AUC (area under concentration-time curve) was calculated through the trapezoidal rule with extrapolation to time infinity. The concentration of the compounds in the blood was analysed by LC-MS/MS (Shimadzu liquid chromatographic system and SCIEX Triple Quad 5500+ mass spectrometer, Applied Biosystems, Ontario, Canada). The Tmax, T1/2, and Cmax value was obtained through visual inspection of the plasma concentration-time curve. The Vss value was generated from DAS 3.2.8 software. The F value of WK-23 was calculated with the formula: F = (AUC p.o. × Dose i.v.)/(AUC i.v. × Dose p.o.) × 100%.

Results on 2 compounds are retold here after article PMC9186373, “Design, synthesis, and biological evaluation of novel carbazole derivatives as potent DNMT1 inhibitors with reasonable PK properties” (Journal of Enzyme Inhibition and Medicinal Chemistry, 2022).

As a reminder, the AUC(0-t) is the area under the concentration-time curve up to a stated or last time point. Read a low AUC(0-t) as less exposure. A word on the Tmax: it is the time from dosing to the highest level. By half-life is commonly meant the time needed for the level to fall by half in the phase considered. A lower half-life goes with fast loss. As a reminder, the bioavailability is the share of a dose that reaches the circulation, judged against a reference dose that is usually intravenous. A word on the melting point: it is the temperature of the solid-liquid transition. As for `CC(C)NCC(O)COC(Cn1c2ccc(F)cc2c2cc(F)ccc21)Cn1c2ccc(F)cc2c2cc(F)ccc21` (stereo not shown) [WK-22, 1-((1,3-Bis(3,6-difluoro-9H-carbazol-9-yl)propan-2-yl)oxy)-3-(isopropylamino)propan-2-ol], the melting point is 89 to 91 °C. In the data set “PK study in SD rats” (iv, i.v. (2 mg/kg)), the AUC(0-t) is 867 ± 15.9 ng·h/mL, the Tmax came out at 0.1 h and the half-life was 12.2 ± 0.8 h. Also, the bioavailability in the data set “PK study in SD rats” (oral) was 27%. In the data set “PK study in SD rats” (po), this compound had a bioavailability of 27 ± 4.6%. In “PK study in SD rats” (po, p.o. (10 mg/kg)), the AUC(0-t) stood at 1170 ± 197 ng·h/mL, the Tmax stood at 7.3 ± 1.2 h and the half-life was 8.8 ± 1.3 h.
On to `CC(C)NCC(O)COC(Cn1c2ccccc2c2cc(F)ccc21)Cn1c2ccccc2c2cc(F)ccc21` (stereo not shown) [WK-23, 1-((1,3-bis(3-fluoro-9H-carbazol-9-yl)propan-2-yl)oxy)-3-(isopropylamino)propan-2-ol], for which, in the data set “PK study in SD rats” (iv, i.v. (2 mg/kg)), the AUC(0-t) worked out at 1060 ± 121 ng·h/mL, the Tmax is 0.08 h and the half-life is 7.9 ± 1 h. The same compound displayed a bioavailability in the data set “PK study in SD rats” (po) of 37.1 ± 1.7%. Moreover, in “PK study in SD rats” (po, p.o. (10 mg/kg)), the AUC(0-t) turned out to be 1970 ± 91.1 ng·h/mL, the Tmax worked out at 6.7 ± 1.2 h and the half-life is 6.5 ± 0.3 h.
